Data: ChEMBL document CHEMBL4483862, “Open-source discovery of chemical leads for next-generation chemoprotective antimalarials” (2018)

Test system: Plasmodium berghei
Assay: Luciferase/luciferin-expressing antifolate-resistant parasites were used to infect a culture of HepG2 cells that were pre-incubated with compounds. Infected hepatocytes emit light due to the luciferase reaction. Assay results are presented as the percent inhibition of light emission compared to control. […]
Assay type: functional
Conditions: sporozoite; for IC90: read-out: LUCIFERASE INFECTION ASSAY - IC90

Compound | IC90 | other results
CC(C)c1ccccc1-n1c(SCC(=O)N2CCc3ccccc3C2)nc2ccccc2c1=O | > 10 µM | IC50 (FFLUC_HILL_SLOPE 14.4, FFLUC_R_SQUARED 0.575, read-out: LUCIFERASE INFECTION ASSAY - IC50): > 10 µM
COc1c(C)cc(C(O)c2nc(-c3cccc4ccccc34)c[nH]2)cc1C (configuration not stated) | > 9.21 µM | IC50 (FFLUC_HILL_SLOPE 13.5, FFLUC_R_SQUARED 0.422, HEPG2TOX_HILL_SLOPE 8.48, HEPG2TOX_R_SQUARED 0.286, read-out: LUCIFERASE INFECTION ASSAY - IC50): > 9.21 µM
COc1ccc(Sc2ccc([N+](=O)[O-])c3nonc23)cc1 | 10.7 µM | IC50 (FFLUC_HILL_SLOPE 14.3, FFLUC_R_SQUARED 0.436, HEPG2TOX_HILL_SLOPE 9.62, HEPG2TOX_R_SQUARED 0.82, PBLUC_HILL_SLOPE 22.9, PBLUC_R_SQUARED 0.553, read-out: LUCIFERASE INFECTION ASSAY - IC50): 9.76 µM
COc1ccc(C(=O)/C(=C/c2ccc(C)cc2C)c2nc3ccccc3[nH]2)cc1 | 4.07 µM | IC50 (FFLUC_HILL_SLOPE 13.7, FFLUC_R_SQUARED 0.282, HEPG2TOX_HILL_SLOPE 10.4, HEPG2TOX_R_SQUARED 0.664, PBLUC_HILL_SLOPE 15.9, PBLUC_R_SQUARED 0.277, read-out: LUCIFERASE INFECTION ASSAY - IC50): 3.54 µM
CC(C)CNc1nn2c(-c3cccc(C(=O)N(C)C)c3)cnc2s1 | > 9.61 µM | IC50 (FFLUC_HILL_SLOPE 13.4, FFLUC_R_SQUARED 0.472, read-out: LUCIFERASE INFECTION ASSAY - IC50): > 9.61 µM
CCN(CC)S(=O)(=O)c1ccc(SC(C)C(=O)Nc2ccc(OC(F)(F)F)cc2)nc1 (configuration not stated) | > 10 µM | IC50 (FFLUC_HILL_SLOPE 13.8, FFLUC_R_SQUARED 0.75, read-out: LUCIFERASE INFECTION ASSAY - IC50): > 10 µM
O=C(Nc1ccc(OC(F)(F)F)cc1)Nc1ccc2nc(-c3ccsc3)nn2c1 | 9.37 µM | IC50 (FFLUC_HILL_SLOPE 13.4, FFLUC_R_SQUARED 0.266, PBLUC_HILL_SLOPE 2.61, PBLUC_R_SQUARED 0.893, read-out: LUCIFERASE INFECTION ASSAY - IC50): 4.04 µM
Cc1cc(Cl)c(C)c(S(=O)(=O)Nc2ccccc2N2CCN(C)CC2)c1Cl | > 10 µM | IC50 (FFLUC_HILL_SLOPE 13.7, FFLUC_R_SQUARED 0.171, read-out: LUCIFERASE INFECTION ASSAY - IC50): > 10 µM
CCn1c2ccccc2c2cc(NC(=O)CN3C(=O)NC4(CCCc5ccccc54)C3=O)ccc21 (configuration not stated) | 9.72 µM | IC50 (FFLUC_HILL_SLOPE 13.4, FFLUC_R_SQUARED 0.411, HEPG2TOX_HILL_SLOPE 9.13, HEPG2TOX_R_SQUARED 0.498, PBLUC_HILL_SLOPE 3.53, PBLUC_R_SQUARED 0.448, read-out: LUCIFERASE INFECTION ASSAY - IC50): 5.21 µM
CC(C)(C)c1cc(C(=O)Nc2ccc(Br)c(Cl)c2)n(Cc2ccccc2)n1 | > 7.39 µM | IC50 (FFLUC_HILL_SLOPE 13.4, FFLUC_R_SQUARED 0.471, HEPG2TOX_HILL_SLOPE 9.89, HEPG2TOX_R_SQUARED 0.67, PBLUC_HILL_SLOPE 12.6, PBLUC_R_SQUARED 0.293, read-out: LUCIFERASE INFECTION ASSAY - IC50): > 7.39 µM
COc1cccc(-c2nc3ccc(NC(=O)Nc4ccc(Cl)c(C(F)(F)F)c4)cn3n2)c1 | 9.24 µM | IC50 (FFLUC_HILL_SLOPE 14.4, FFLUC_R_SQUARED 0.104, PBLUC_HILL_SLOPE 6.95, PBLUC_R_SQUARED 0.291, read-out: LUCIFERASE INFECTION ASSAY - IC50): 6.74 µM
Cn1c(-c2cccc(C(F)(F)F)c2)cc2c(Nc3cccnc3)nccc21 | > 10 µM | IC50 (FFLUC_HILL_SLOPE 13.4, FFLUC_R_SQUARED 0.159, PBLUC_HILL_SLOPE 11.7, PBLUC_R_SQUARED 0.342, read-out: LUCIFERASE INFECTION ASSAY - IC50): 9.06 µM
CCOC(=O)c1c(C)[nH]c(C(=O)CSc2nccn2C)c1C | 0.204 µM | IC50 (FFLUC_HILL_SLOPE 13.6, FFLUC_R_SQUARED 0.648, PBLUC_HILL_SLOPE 159, PBLUC_R_SQUARED 0.464, read-out: LUCIFERASE INFECTION ASSAY - IC50): 0.201 µM
O=C(Cn1ncc(Cl)c(Cl)c1=O)Nc1cc(Cl)ccc1[N+](=O)[O-] | 3.5 µM | IC50 (FFLUC_HILL_SLOPE 13.5, FFLUC_R_SQUARED 0.43, HEPG2TOX_HILL_SLOPE 9.94, HEPG2TOX_R_SQUARED 0.973, PBLUC_HILL_SLOPE 20.4, PBLUC_R_SQUARED 0.69, read-out: LUCIFERASE INFECTION ASSAY - IC50): 3.14 µM
CCCN1C(=O)c2[nH]nc(-c3ccccc3O)c2C1c1ccc(Cl)cc1 (configuration not stated) | > 8.97 µM | IC50 (FFLUC_HILL_SLOPE 13.6, FFLUC_R_SQUARED 0.713, HEPG2TOX_HILL_SLOPE 5.14, HEPG2TOX_R_SQUARED 0.579, read-out: LUCIFERASE INFECTION ASSAY - IC50): > 8.97 µM
CCC(C)NC(=O)c1c(NC(=O)c2ccc(Cl)cc2Cl)nc2ccc(C)cn12 (configuration not stated) | 0.967 µM | IC50 (FFLUC_HILL_SLOPE 13.5, FFLUC_R_SQUARED 0.613, HEPG2TOX_HILL_SLOPE 1.25, HEPG2TOX_R_SQUARED 0.963, PBLUC_HILL_SLOPE 11.1, PBLUC_R_SQUARED 0.736, read-out: LUCIFERASE INFECTION ASSAY - IC50): 0.793 µM

Compound | IC90 | other results
CCOC(=O)c1sc(SCc2ccc(Cl)cc2)c(S(=O)(=O)C(C)C)c1-n1cccc1 | > 6.82 µM | IC50 (FFLUC_HILL_SLOPE 13.5, FFLUC_R_SQUARED 0.375, read-out: LUCIFERASE INFECTION ASSAY - IC50): > 6.82 µM
O=C1C(=O)N(Cc2cc3c(cc2Cl)OCO3)c2ccc(Br)cc21 | > 8.36 µM | IC50 (FFLUC_HILL_SLOPE 13.4, FFLUC_R_SQUARED 0.714, HEPG2TOX_HILL_SLOPE 8.11, HEPG2TOX_R_SQUARED 0.359, PBLUC_HILL_SLOPE 6.2, PBLUC_R_SQUARED 0.151, read-out: LUCIFERASE INFECTION ASSAY - IC50): 7.48 µM
COc1cc(C(=O)N(C)C(c2ccccc2)c2ccccc2)ccc1OCC(C)C | > 10 µM | IC50 (FFLUC_HILL_SLOPE 13.6, FFLUC_R_SQUARED 0.558, HEPG2TOX_HILL_SLOPE 7.8, HEPG2TOX_R_SQUARED 0.217, read-out: LUCIFERASE INFECTION ASSAY - IC50): > 10 µM
COc1ccc(CC(=O)N2CCC3(CC2)OCc2ccccc2O3)cc1 | > 9.34 µM | IC50 (FFLUC_HILL_SLOPE 13.5, FFLUC_R_SQUARED 0.0841, HEPG2TOX_HILL_SLOPE 0.312, HEPG2TOX_R_SQUARED 0.567, read-out: LUCIFERASE INFECTION ASSAY - IC50): > 9.34 µM
O=S(=O)(c1ccc2oc(Nc3ccc(Nc4ccccc4)cc3)nc2c1)N1CCOCC1 | > 10 µM | IC50 (FFLUC_HILL_SLOPE 13.7, FFLUC_R_SQUARED 0.693, PBLUC_HILL_SLOPE 9.99, PBLUC_R_SQUARED 0.314, read-out: LUCIFERASE INFECTION ASSAY - IC50): 9.23 µM
Cc1ccc(CN2C(=O)C(O)(c3c[nH]c4ccccc34)c3ccccc32)c(C)c1 (configuration not stated) | 6.05 µM | IC50 (FFLUC_HILL_SLOPE 13.6, FFLUC_R_SQUARED 0.607, PBLUC_HILL_SLOPE 3.72, PBLUC_R_SQUARED 0.631, read-out: LUCIFERASE INFECTION ASSAY - IC50): 3.35 µM
O=C(NC(=S)NNc1ncc(C(F)(F)F)cc1Cl)c1cccs1 | 1.1 µM | IC50 (FFLUC_HILL_SLOPE 14.4, FFLUC_R_SQUARED 0.344, HEPG2TOX_HILL_SLOPE 0.95, HEPG2TOX_R_SQUARED 0.974, PBLUC_HILL_SLOPE 2.04, PBLUC_R_SQUARED 0.707, read-out: LUCIFERASE INFECTION ASSAY - IC50): 0.374 µM
Cc1ccc(-c2csc3[nH]c(CNC(C)c4ccc5c(c4)CCCC5)nc(=O)c23)s1 (configuration not stated) | > 10 µM | IC50 (FFLUC_HILL_SLOPE 13.5, FFLUC_R_SQUARED 0.414, HEPG2TOX_HILL_SLOPE 0.395, HEPG2TOX_R_SQUARED 0.365, read-out: LUCIFERASE INFECTION ASSAY - IC50): > 10 µM
CC(=O)c1ccc(NC(=O)Cn2nc(-c3ccco3)ccc2=O)cc1 | > 9.78 µM | IC50 (FFLUC_HILL_SLOPE 14.3, FFLUC_R_SQUARED 0.29, read-out: LUCIFERASE INFECTION ASSAY - IC50): > 9.78 µM
CCOC(=O)Nc1ccc2c(Cn3cnc4sc5c(c4c3=O)CCC5)cc(=O)oc2c1 | > 10 µM | IC50 (FFLUC_HILL_SLOPE 14, FFLUC_R_SQUARED 0.282, read-out: LUCIFERASE INFECTION ASSAY - IC50): > 10 µM
CC(C)(C)c1cc(NC(=O)CSc2ccc(Cl)cc2)c(C(N)=O)s1 | > 8.62 µM | IC50 (FFLUC_HILL_SLOPE 13.8, FFLUC_R_SQUARED 0.177, HEPG2TOX_HILL_SLOPE 8.22, HEPG2TOX_R_SQUARED 0.725, read-out: LUCIFERASE INFECTION ASSAY - IC50): > 8.62 µM
Cc1c(C(=O)C(F)(F)F)c(-c2nn(-c3ccccc3)c(NC(=O)C(F)(F)F)c2C(=O)C(F)(F)F)c(C)n1-c1ccc(F)cc1 | > 10 µM | IC50 (FFLUC_HILL_SLOPE 13.3, FFLUC_R_SQUARED 0.772, PBLUC_HILL_SLOPE 3.36, PBLUC_R_SQUARED 0.0987, read-out: LUCIFERASE INFECTION ASSAY - IC50): 8.23 µM
CC(C)c1nc(N2CCN(CC(=O)N3CCCC3)CC2)c(C#N)c2c1CCC2 | 2.94 µM | IC50 (FFLUC_HILL_SLOPE 13.3, FFLUC_R_SQUARED 0.232, PBLUC_HILL_SLOPE 4.16, PBLUC_R_SQUARED 0.67, read-out: LUCIFERASE INFECTION ASSAY - IC50): 1.73 µM
Clc1ccc2nc(CSc3nnc4c(n3)[nH]c3ccccc34)cn2c1 | 9.67 µM | IC50 (FFLUC_HILL_SLOPE 14.4, FFLUC_R_SQUARED 0.465, PBLUC_HILL_SLOPE 2.72, PBLUC_R_SQUARED 0.431, read-out: LUCIFERASE INFECTION ASSAY - IC50): 4.31 µM
O=c1c2c3c(sc2nc(SCc2nc4ccc(Cl)cc4n2CCO)n1CC1CCCO1)CCC3 (configuration not stated) | > 10 µM | IC50 (FFLUC_HILL_SLOPE 13.3, FFLUC_R_SQUARED 0.41, read-out: LUCIFERASE INFECTION ASSAY - IC50): > 10 µM
